Experimental data: patent US10759813B2, “Neprilysin inhibitors” (THERAVANCE BIOPHARMA R&D IP, LLC, priority 2010, dated 2020)

biological target: human neprilysin (EC 3.4.24.11; NEP) (Homo sapiens (Human), UniProt P08473); test: In vitro enzyme inhibition assay at human NEP (fluorogenic peptide substrate); format: biochemical; details: pKi values at human NEP, recombinant human NEP
Procedure: In Vitro Assays for the Quantitation of Inhibitor Potencies at Human and Rat NEP, and Human ACE
The inhibitory activities of compounds at human and rat neprilysin (EC 3.4.24.11; NEP) and human angiotensin converting enzyme (ACE) were determined using in vitro assays as described below.
Recombinant human NEP and recombinant human ACE were obtained commercially (R&D Systems, Minneapolis, Minn., catalog numbers 1182-ZN and 929-ZN, respectively). The fluorogenic peptide substrate Mca-D-Arg-Arg-Leu-Dap-(Dnp)-OH (Medeiros et al. (1997) Braz. J. Med. Biol. Res. 30:1157-62; Anaspec, San Jose, Calif.) and Abz-Phe-Arg-Lys(Dnp)-Pro-OH (Araujo et al. (2000) Biochemistry 39:8519-8525; Bachem, Torrance, Calif.) were used in the NEP and ACE assays respectively.
The assays were performed in 384-well white opaque plates at 37° C. using the fluorogenic peptide substrates at a concentration of 10 μM in Assay Buffer (NEP: 50 mM HEPES, pH 7.5, 100 mM NaCl, 0.01% polyethylene glycol sorbitan monolaurate (Tween-20), 10 μM ZnSO4; ACE: 50 mM HEPES, pH 7.5, 100 mM NaCl, 0.01% Tween-20, 1 μM ZnSO4).
Test compounds were assayed over the range of concentrations from 10 μM to pM. Test compounds were added to the enzymes and incubated for 30 minute at 37° C. prior to initiating the reaction by the addition of substrate. Reactions were terminated after 20 minutes of incubation at 37° C. by the addition of glacial acetic acid to a final concentration of 3.6% (v/v).
Plates were read on a fluorometer with excitation and emission wavelengths set to 320 nm and 405 nm, respectively. Inhibition constants were obtained by nonlinear regression of the data using the equation (GraphPad Software, Inc., San Diego, Calif.): v=v0/[1+(I/K′)] where v is the reaction rate, v0 is the uninhibited reaction rate, I is the inhibitor concentration and K′ is the apparent inhibition constant.
Compounds of the invention were tested in this assay and found to have pKi values at human NEP as follows.

Sequence of human neprilysin (EC 3.4.24.11; NEP) (P08473 52-750): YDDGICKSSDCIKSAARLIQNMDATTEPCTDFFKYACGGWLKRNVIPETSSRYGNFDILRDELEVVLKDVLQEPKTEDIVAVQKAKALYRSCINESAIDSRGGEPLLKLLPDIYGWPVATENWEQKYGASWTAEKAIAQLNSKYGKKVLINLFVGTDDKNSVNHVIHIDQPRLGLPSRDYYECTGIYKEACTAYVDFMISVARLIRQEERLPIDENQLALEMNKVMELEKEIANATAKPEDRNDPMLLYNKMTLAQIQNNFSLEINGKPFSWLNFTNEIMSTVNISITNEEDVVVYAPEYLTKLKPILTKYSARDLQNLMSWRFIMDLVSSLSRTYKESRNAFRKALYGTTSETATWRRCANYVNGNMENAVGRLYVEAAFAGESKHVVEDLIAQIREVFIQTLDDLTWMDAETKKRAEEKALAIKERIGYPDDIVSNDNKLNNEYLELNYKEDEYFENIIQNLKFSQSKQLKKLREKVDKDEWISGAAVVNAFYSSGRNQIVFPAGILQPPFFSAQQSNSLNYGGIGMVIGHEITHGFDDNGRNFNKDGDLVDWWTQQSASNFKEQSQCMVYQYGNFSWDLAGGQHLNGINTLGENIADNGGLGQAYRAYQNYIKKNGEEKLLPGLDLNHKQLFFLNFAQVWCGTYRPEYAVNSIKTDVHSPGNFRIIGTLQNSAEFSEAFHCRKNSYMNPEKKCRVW

| Compound | pKi | Ki [nM] |
| --- | --- | --- |
| CC(=O)c1cc(C(=O)N[C@H](Cc2ccc(-c3ccccc3)cc2)C[C@@H](O)C(=O)O)[nH]n1 [Example 1-B, (2R,4R)-4-[(5-Acetyl-2H-pyrazole-3-carbonyl)amino]-5-biphenyl-4-yl-2-hydroxypentanoic Acid] | ≥9.0 | – |
| O=C(N[C@H](Cc1ccc(-c2ccccc2)cc1)C[C@H](O)C(=O)O)c1cc(C(=O)O)[nH]n1 [Example 2-C, 5-((1R,3S)-1-Biphenyl-4-ylmethyl-3-carboxy-3-hydroxypropylcarbamoyl)-2H-pyrazole-3-carboxylic Acid] | ≥9.0 | – |
| O=C(N[C@H](Cc1ccc(-c2ccccc2)cc1)C[C@@H](O)C(=O)O)c1cc(C(=O)O)[nH]n1 [Example 2-D, 5-((1R,3R)-1-Biphenyl-4-ylmethyl-3-carboxy-3-hydroxypropylcarbamoyl)-2H-pyrazole-3-carboxylic Acid] | ≥9.0 | – |
| COCCN(C)C(=O)c1cc(C(=O)N[C@H](Cc2ccc(-c3ccccc3)cc2)C[C@H](O)C(=O)O)[nH]n1 [Example 3-C, (2S,4R)-5-Biphenyl-4-yl-2-hydroxy-4-({5-[(2-methoxyethyl)methylcarbamoyl]-2H-pyrazole-3-carbonyl}amino)pentanoic Acid] | – | 1.26 to 10 |
| COCCN(C)C(=O)c1cc(C(=O)N[C@H](Cc2ccc(-c3ccccc3)cc2)C[C@@H](O)C(=O)O)[nH]n1 [Example 3-D, (2R,4R)-5-Biphenyl-4-yl-2-hydroxy-4-({5-[(2-methoxyethyl)methylcarbamoyl]-2H-pyrazole-3-carbonyl}amino)pentanoic Acid] | ≥9.0 | – |
| O=C(N[C@H](Cc1ccc(-c2ccccc2)cc1)C[C@@H](O)C(=O)O)c1cc(C(=O)N2CCC2)n[nH]1 [Example 4-B, (2R,4R)-4-{[5-(Azetidine-1-carbonyl)-2H-pyrazole-3-carbonyl]amino}-5-biphenyl-4-yl-2-hydroxy-pentanoic acid] | ≥9.0 | – |
| O=C(N[C@H](Cc1ccc(-c2ccccc2)cc1)C[C@@H](O)C(=O)O)c1cc(C(=O)N2CCCC2)n[nH]1 [Example 5-B, (2R,4R)-5-Biphenyl-4-yl-2-hydroxy-4-{[5-(pyrrolidine-1-carbonyl)-2H-pyrazole-3-carbonyl]-amino}pentanoic Acid] | ≥9.0 | – |
| O=C(N[C@H](Cc1ccc(-c2ccccc2)cc1)C[C@@H](O)C(=O)O)c1cnc(O)nc1 [Example 6-B, (2R,4R)-5-Biphenyl-4-yl-2-hydroxy-4-[(2-hydroxypyrimidine-5-carbonyl)amino]pentanoic Acid] | ≥9.0 | – |
| O=C(N[C@H](Cc1ccc(-c2ccccc2)cc1)C[C@@H](O)C(=O)O)c1cc(O)no1 [Example 7-B, (2R,4R)-5-Biphenyl-4-yl-2-hydroxy-4-[(3-hydroxyisoxazole-5-carbonyl)amino]pentanoic Acid] | ≥9.0 | – |
| CC(C)(O)c1cc(C(=O)N[C@H](Cc2ccc(-c3ccccc3)cc2)C[C@@H](O)C(=O)O)n[nH]1 [Example 8-B, (2R,4R)-5-Biphenyl-4-yl-2-hydroxy-4-{[5-(1-hydroxy-1-methylethyl)-1H-pyrazole-3-carbonyl]amino}pentanoic acid] | ≥9.0 | – |
| NC(=O)[C@H](O)C[C@@H](Cc1ccc(-c2ccccc2)cc1)NC(=O)c1cnc(O)nc1 [Example 9, 2-Hydroxypyrimidine-5-carboxylic acid ((1R,3R)-1-biphenyl-4-ylmethyl-3-carbamoyl-3-hydroxypropyl)amide] | – | 12.6 to 100 |
| O=C(N[C@H](Cc1ccc(-c2ccccc2)cc1)C[C@@H](O)C(=O)O)c1cnn[nH]1 [Example 10-2, (2R,4R)-5-Biphenyl-4-yl-2-hydroxy-4-[(3H-[1,2,3]triazole-4-carbonyl)amino]pentanoic acid] | – | 1.26 to 10 |
| O=C(N[C@H](Cc1ccc(-c2ccccc2)cc1)C[C@@H](O)C(=O)O)c1cn(O)nn1 [Example 10-3, (2R,4R)-5-Biphenyl-4-yl-2-hydroxy-4-[(1-hydroxy-1H-[1,2,3]triazole-4-carbonyl)-amino]-pentanoic acid] | ≥9.0 | – |
